In ChEMBL document CHEMBL5120772, “Discovery of ASP5878: Synthesis and structure-activity relationships of pyrimidine derivatives as pan-FGFRs inhibitors with improved metabolic stability and suppressed hERG channel inhibitory activity” (Bioorg Med Chem, 2022):
Each block holds one compound with its values, some of them ahead of it.

Tests used:
[1] = Intrinsic clearance in human liver microsomes
[2] = biological target: Voltage-gated inwardly rectifying potassium channel KCNH2 (Homo sapiens, UniProt Q12809); assay: Inhibition of hERG channel expressed in CHO cells at -80 mV holding potential by Qpatch clamp method
NIH3T3 = assay: Cytotoxicity against mouse NIH/3T3 cells overexpressing FGFR3 S249C assessed as cell growth inhibition incubated for 5 days by CellTitre-Glo assay; settings: NIH3T3, 120 h
[3] = Lipophilicity, logD of the compound in 1-octanol and phosphate buffer at pH 7.4 by LC-MS analysis
[4] = Permeability of the compound in aqueous buffer at pH 6.5 incubated for 2 hrs by PAMPA based HPLC analysis
[5] = Plasma concentration in ICR mouse at 30 mg/kg, po measured after 6 hrs of administration by LC-MS/MS analysis; format: ADME, organism-based
animal or person = settings: Mus musculus, Balb/c, NIH3T3, po, 6 h, read-out: INH
[6] = Ratio of drug concentration in brain to plasma (Kp,brain) in Sprague-Dawley rat at 1 mg/kg, po measured after 1 hr
[7] = Ratio of drug concentration in brain to plasma (Kp,brain) in Sprague-Dawley rat at 1 mg/kg, po measured after 4 hrs
[8] = Ratio of drug concentration in brain to plasma (Kp,brain) in Sprague-Dawley rat at 1 mg/kg, po measured after 24 hrs
[9] = biological target: Fibroblast growth factor receptor 3 (Homo sapiens, UniProt P22607); assay: Inhibition of wild type N-terminal GST tagged FGFR3 (436 to 806 residues) (unknown origin) expressed in sf21 insect cells preincubated for 30 mins followed by substrate addition and measured after 30 mins in presence of ATP by off-chip mobility shift assay
[10] = Volume of distribution at steady state in Sprague-Dawley rat at 0.3 mg/kg, iv measured up to 24 hrs by LC-MS/MS analysis; settings: in vivo
[11] = Volume of distribution at steady state in Beagle dog at 0.1 mg/kg, iv measured up to 72 hrs by LC-MS/MS analysis; settings: in vivo
[12] = Half-life in Sprague-Dawley rat at 0.3 mg/kg, iv measured up to 24 hrs by LC-MS/MS analysis; settings: in vivo
[13] = Half-life in Beagle dog at 0.1 mg/kg, iv measured up to 72 hrs by LC-MS/MS analysis; settings: in vivo
[14] = AUCinfinity in Sprague-Dawley rat at 0.3 mg/kg, iv measured up to 24 hrs by LC-MS/MS analysis; settings: in vivo
[15] = AUCinfinity in Beagle dog at 0.1 mg/kg, iv measured up to 72 hrs by LC-MS/MS analysis; settings: in vivo
[16] = AUCinfinity in Sprague-Dawley rat at 0.3 mg/kg, po measured upto 24 hrs by LC-MS/MS analysis; settings: in vivo
[17] = AUCinfinity in Beagle dog at 0.1 mg/kg, po measured upto 72 hrs by LC-MS/MS analysis; settings: in vivo
hERG [18] = biological target: T1, hERG (Homo sapiens, UniProt Q12809); assay: Inhibition of hERG in HEK293 cells assessed as mean compensated suppression rate at 3 uM incubated for 13 mins by whole cell patch clamp assay relative to control; settings: HEK293 cells expressing hERG
hERG [19] = biological target: T1, hERG; assay: Inhibition of hERG in HEK293 cells assessed as mean compensated suppression rate at 1 uM incubated for 13 mins by whole cell patch clamp assay relative to control; settings: HEK293 cells expressing hERG
hERG [20] = biological target: T1, hERG; assay: Inhibition of hERG in HEK293 cells assessed as mean compensated suppression rate at 10 uM incubated for 13 mins by whole cell patch clamp assay relative to control; settings: HEK293 cells expressing hERG
[21] = dog, in vivo, po, 10 mg/kg, 72 h
[22] = dog, in vivo, po, 100 mg/kg, 72 h
[23] = dog, in vivo, po, 10 mg/kg, 72 h; remark: listed apart in the source
in vivo [24] = settings: beagle, dog, po, 1 mg/kg
in vivo [25] = settings: beagle, dog, po, 1 mg/kg; remark: listed apart in the source
in vivo [26] = settings: beagle, dog, po, 1 mg/kg; remark: listed apart in the source
in vivo [27] = settings: beagle, dog, po, 10 mg/kg
in vivo [28] = settings: beagle, dog, po, 100 mg/kg
in vivo [29] = settings: beagle, dog, po, 100 mg/kg; remark: listed apart in the source
in vivo [30] = settings: Sprague-Dawley, rat, iv, 0.3 mg/kg
in vivo [31] = settings: beagle, dog, iv, 0.1 mg/kg
in vivo [32] = settings: Sprague-Dawley, rat, po, 0.3 mg/kg
in vivo [33] = settings: beagle, dog, po, 0.1 mg/kg
in vivo [34] = settings: Sprague-Dawley, rat, po, 0.3 mg/kg; remark: listed apart in the source
in vivo [35] = settings: beagle, dog, po, 0.1 mg/kg; remark: listed apart in the source
in vivo [36] = settings: Sprague-Dawley, rat, po, 0.3 mg/kg; remark: listed apart in the source
in vivo [37] = settings: beagle, dog, po, 0.1 mg/kg; remark: listed apart in the source

T1 sequence (Q12809 whole entry): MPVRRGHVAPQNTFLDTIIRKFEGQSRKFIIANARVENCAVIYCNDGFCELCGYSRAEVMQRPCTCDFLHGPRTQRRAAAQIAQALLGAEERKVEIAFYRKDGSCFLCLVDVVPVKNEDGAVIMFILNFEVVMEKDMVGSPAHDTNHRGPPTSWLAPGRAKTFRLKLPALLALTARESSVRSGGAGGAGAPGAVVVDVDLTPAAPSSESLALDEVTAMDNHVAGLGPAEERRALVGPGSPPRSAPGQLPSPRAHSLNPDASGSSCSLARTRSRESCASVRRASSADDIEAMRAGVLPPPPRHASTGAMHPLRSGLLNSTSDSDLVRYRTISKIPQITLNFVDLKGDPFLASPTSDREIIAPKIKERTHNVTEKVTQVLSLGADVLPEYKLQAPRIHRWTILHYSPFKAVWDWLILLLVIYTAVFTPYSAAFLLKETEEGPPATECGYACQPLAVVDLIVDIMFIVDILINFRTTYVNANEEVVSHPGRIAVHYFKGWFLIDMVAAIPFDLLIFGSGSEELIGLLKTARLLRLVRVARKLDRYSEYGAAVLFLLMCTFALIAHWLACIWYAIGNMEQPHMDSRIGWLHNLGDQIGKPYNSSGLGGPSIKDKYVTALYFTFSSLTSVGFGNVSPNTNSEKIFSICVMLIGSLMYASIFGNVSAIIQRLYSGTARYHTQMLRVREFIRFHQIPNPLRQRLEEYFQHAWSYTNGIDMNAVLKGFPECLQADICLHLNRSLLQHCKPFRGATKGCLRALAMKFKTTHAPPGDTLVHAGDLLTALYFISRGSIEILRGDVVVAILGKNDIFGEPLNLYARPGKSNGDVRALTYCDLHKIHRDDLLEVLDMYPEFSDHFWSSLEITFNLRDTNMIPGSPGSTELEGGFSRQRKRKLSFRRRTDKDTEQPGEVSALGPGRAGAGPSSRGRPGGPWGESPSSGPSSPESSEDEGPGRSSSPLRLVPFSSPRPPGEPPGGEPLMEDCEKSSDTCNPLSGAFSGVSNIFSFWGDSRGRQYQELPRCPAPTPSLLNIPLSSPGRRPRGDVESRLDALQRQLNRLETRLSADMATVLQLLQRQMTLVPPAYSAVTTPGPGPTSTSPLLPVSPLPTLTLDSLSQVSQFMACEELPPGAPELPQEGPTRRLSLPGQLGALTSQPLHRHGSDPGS
Voltage-gated inwardly rectifying potassium channel KCNH2, sequence (Q12809 whole entry): as above
Fibroblast growth factor receptor 3, sequence (P22607 whole entry, the tested form may be a part): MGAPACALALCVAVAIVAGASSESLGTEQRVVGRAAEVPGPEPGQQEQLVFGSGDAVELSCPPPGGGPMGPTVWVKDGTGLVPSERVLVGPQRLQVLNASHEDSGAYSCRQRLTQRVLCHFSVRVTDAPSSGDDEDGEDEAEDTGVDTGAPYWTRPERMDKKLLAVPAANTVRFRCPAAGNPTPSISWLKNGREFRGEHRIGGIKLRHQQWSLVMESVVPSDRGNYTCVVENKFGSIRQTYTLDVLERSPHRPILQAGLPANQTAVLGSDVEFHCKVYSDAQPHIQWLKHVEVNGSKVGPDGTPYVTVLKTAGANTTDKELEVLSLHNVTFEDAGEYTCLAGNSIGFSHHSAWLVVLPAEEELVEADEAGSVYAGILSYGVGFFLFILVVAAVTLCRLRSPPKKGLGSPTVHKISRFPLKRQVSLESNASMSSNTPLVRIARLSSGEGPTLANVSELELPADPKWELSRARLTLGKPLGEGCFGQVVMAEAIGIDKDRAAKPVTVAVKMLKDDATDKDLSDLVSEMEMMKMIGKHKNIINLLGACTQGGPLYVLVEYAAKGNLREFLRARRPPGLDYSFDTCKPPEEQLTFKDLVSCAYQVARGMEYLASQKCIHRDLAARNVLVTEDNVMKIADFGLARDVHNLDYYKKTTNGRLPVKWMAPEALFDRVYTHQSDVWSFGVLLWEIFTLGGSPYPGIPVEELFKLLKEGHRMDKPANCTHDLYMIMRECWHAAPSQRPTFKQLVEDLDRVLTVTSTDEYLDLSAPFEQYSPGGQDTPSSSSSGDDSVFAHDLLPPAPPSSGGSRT

Compound: COc1cc(Nc2ncc(CCc3c(F)c(OC)cc(OC)c3F)cn2)ccc1N1CCC(N2CCN(C)CC2)CC1
CLint scaled ([1]; liver microsomes): 171 mL/min/kg | IC50 [2]: 10 µM

Compound: COc1cc(Nc2ncc(OCc3c(F)c(OC)cc(OC)c3F)cn2)ccc1N1CCN(C)CC1
CLint scaled ([1]; liver microsomes): 39 mL/min/kg | IC50 [2]: > 3 µM | logD ([3]; 1-octanol/phosphate buffer): 3 | Papp at 2 h [4]: 16.2 ×10⁻⁶ cm/s

Compound: CCOc1cc(Nc2ncc(OCc3c(F)c(OC)cc(OC)c3F)cn2)ccc1N1CCC(N2CCN(C)CC2)CC1
CLint scaled ([1]; liver microsomes): < 23 mL/min/kg | IC50 [2]: > 3 µM | logD ([3]; 1-octanol/phosphate buffer): 3.8 | Papp at 2 h [4]: 16.8 ×10⁻⁶ cm/s

Compound: COc1cc(OC)c(F)c(COc2cnc(Nc3ccc(N4CCC(N5CCN(C)CC5)CC4)nc3)nc2)c1F
CLint scaled ([1]; liver microsomes): 34 mL/min/kg

Compound: COc1cc(OC)c(F)c(COc2cnc(Nc3cnn(CCO)c3)n[14cH]2)c1F
Kp at 1 h [6]: 0.15 | Kp at 4 h [7]: 0.2 | Kp at 24 h [8]: 0.69

Compound: COc1cc(Nc2ncc(CCc3c(F)c(OC)cc(OC)c3F)cn2)ccc1N1CCN(C)CC1
IC50 (NIH3T3): 0.018 µM | CLint scaled ([1]; liver microsomes): 101 mL/min/kg | logD ([3]; 1-octanol/phosphate buffer): 3 | Papp at 2 h [4]: > 30 ×10⁻⁶ cm/s

Compound: COc1cc(Nc2ncc(CCc3c(F)c(OC)cc(OC)c3F)cn2)ccc1N1CCN(C2CCN(C)CC2)CC1
CLint scaled ([1]; liver microsomes): 51 mL/min/kg

Compound: COc1cc(Nc2ncc(OCc3c(F)c(OC)cc(OC)c3F)cn2)cnc1N1CCC(N2CCN(C)CC2)CC1
CLint scaled ([1]; liver microsomes): 26 mL/min/kg

Compound: COc1cc(OC)c(F)c(COc2cnc(Nc3cnn(CCNC4CCN(C)CC4)c3)nc2)c1F.Cl.Cl.Cl
IC50 (NIH3T3): 0.032 µM | CLint scaled ([1]; liver microsomes): < 23 mL/min/kg | IC50 [2]: 83 µM | logD ([3]; 1-octanol/phosphate buffer): 0.7 | Papp at 2 h [4]: < 1.4 ×10⁻⁶ cm/s | concentration at 6 h [5]: 50.2 nM

Compound: COc1cc(OC)c(F)c(COc2cnc(Nc3cnn(CCN4CCNCC4)c3)nc2)c1F.Cl.Cl.Cl
IC50 (NIH3T3): 0.013 µM | CLint scaled ([1]; liver microsomes): < 23 mL/min/kg | IC50 [2]: 89 µM | logD ([3]; 1-octanol/phosphate buffer): 0.2 | Papp at 2 h [4]: < 1.1 ×10⁻⁶ cm/s | concentration at 6 h [5]: 305 nM

Compound: COc1cc(OC)c(F)c(COc2cnc(Nc3ccc(N4CCC(N5CCN(C)CC5)CC4)c(F)c3)nc2)c1F
IC50 (NIH3T3): 0.0055 µM | CLint scaled ([1]; liver microsomes): 42 mL/min/kg | IC50 [9]: < 0.001 µM

Further lines, with some results ahead:

CLint scaled ([1]; liver microsomes): 40 mL/min/kg | logD ([3]; 1-octanol/phosphate buffer): 3.3 | Papp at 2 h [4]: 11.2 ×10⁻⁶ cm/s | concentration at 6 h [5]: 2790 nM
Compound: COc1cc(Nc2ncc(OCc3c(F)c(OC)cc(OC)c3F)cn2)ccc1N1CCC(N2CCN(C)CC2)CC1
IC50 (NIH3T3): 0.013 µM | IC50 [2]: > 3 µM | inhibition in vivo at 30 mg/kg (animal or person): 67%

CLint scaled ([1]; liver microsomes): 48 mL/min/kg | logD ([3]; 1-octanol/phosphate buffer): 2.5 | Papp at 2 h [4]: < 0.9 ×10⁻⁶ cm/s
Compound: COc1cc(Nc2ncc(CCc3c(F)c(OC)cc(OC)c3F)cn2)ccc1N1CCC(N(C)C2CCN(C)CC2)CC1.Cl.Cl.Cl.Cl
IC50 (NIH3T3): 0.024 µM | IC50 [2]: > 1 µM

CLint scaled ([1]; liver microsomes): 39 mL/min/kg
Compound: COc1cc(OC)c(F)c(COc2cnc(Nc3cnc(N4CCC(N5CCN(C)CC5)CC4)nc3)nc2)c1F

CLint scaled ([1]; liver microsomes): 58 mL/min/kg | logD ([3]; 1-octanol/phosphate buffer): 4.1 | Papp at 2 h [4]: 20.6 ×10⁻⁶ cm/s
Compound: COc1cc(OC)c(F)c(COc2cnc(Nc3ccc(N4CCC(N5CCN(C)CC5)CC4)c(C)c3)nc2)c1F
IC50 (NIH3T3): 0.02 µM

CLint scaled ([1]; microsomes): < 23 mL/min/kg | logD ([3]; octanol/water): 2.3 | Papp at 2 h [4]: 13.3 ×10⁻⁶ cm/s | concentration at 6 h [5]: 1570 nM | Vd at 24 h [10]: 0.671 L/kg | Vd at 72 h [11]: 0.665 L/kg | half-life at 24 h [12]: 1.7 h | half-life at 72 h [13]: 9.6 h | AUC(0-inf) at 24 h [14]: 864 ng·h/mL | AUC(0-inf) at 72 h [15]: 1260 ng·h/mL | AUC(0-inf) at 24 h [16]: 657 ng·h/mL | AUC(0-inf) at 72 h [17]: 1180 ng·h/mL | Cmax [21]: 3540 ng/mL | Cmax [22]: 9020 ng/mL | AUC [23]: 39600 ng·h/mL | AUC(0-t) at 72 h (in vivo [24]): 5710 ng·h/mL | Tmax at 72 h (in vivo [25]): 1.3 h | Cmax at 72 h (in vivo [26]): 769 ng/mL | Tmax at 72 h (in vivo [27]): 3 h | Tmax at 72 h (in vivo [28]): 4.5 h | AUC(0-t) at 72 h (in vivo [29]): 111000 ng·h/mL | clearance at 24 h (in vivo [30]): 5.82 mL/min/kg | clearance at 72 h (in vivo [31]): 1.33 mL/min/kg | Cmax at 24 h (in vivo [32]): 196 ng/mL | Cmax at 72 h (in vivo [33]): 119 ng/mL | Tmax at 24 h (in vivo [34]): 1 h | Tmax at 72 h (in vivo [35]): 1 h | bioavailability at 24 h (in vivo [36]): 76.1% | bioavailability at 72 h (in vivo [37]): 94.2%
Compound: COc1cc(OC)c(F)c(COc2cnc(Nc3cnn(CCO)c3)nc2)c1F [ASP-5878]
IC50 (NIH3T3): 0.011 µM | IC50 [2]: > 10 µM | inhibition at 13 min, 3 µM (hERG [18]): 9.1% | inhibition at 13 min, 1 µM (hERG [19]): 7% | inhibition at 13 min, 10 µM (hERG [20]): 9.1%
